According to patent US9522928B2, “Mannosylated compounds useful for the prevention and the treatment of infectious diseases” (UNIVERSITE DE STRASBOURG, priority 2011, dated 2016):
Entries after “also recorded” stand apart in the source; their conditions may differ. Like-named read-outs stand apart in the source and are kept apart here.

Tests used:
DC-SIGN CRD = target: T1, DC-SIGN CRD (Homo sapiens, UniProt Q9NNX6); assay: Surface plasmon resonance (SPR) binding to immobilised DC-SIGN CRD
T1 construct: human DC-SIGN (Lys62-Ala404, from R§D Systems); purchased R&D Systems ('R§D Systems' [sic])
T1 sequence (Q9NNX6 62-404): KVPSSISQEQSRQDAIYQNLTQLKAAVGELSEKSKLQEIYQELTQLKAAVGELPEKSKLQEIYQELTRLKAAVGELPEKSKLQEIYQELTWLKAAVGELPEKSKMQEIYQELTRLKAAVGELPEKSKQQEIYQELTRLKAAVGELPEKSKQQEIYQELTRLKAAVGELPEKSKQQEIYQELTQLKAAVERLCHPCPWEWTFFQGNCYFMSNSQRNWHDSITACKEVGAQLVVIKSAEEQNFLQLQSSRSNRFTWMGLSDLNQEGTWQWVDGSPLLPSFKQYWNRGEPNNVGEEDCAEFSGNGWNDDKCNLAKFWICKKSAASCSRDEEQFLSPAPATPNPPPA
Procedure: SPR experiments were performed using a Biacore 3000. […] Biosensor assays were performed with HEPES-buffered saline (10 mM HEPES, 150 mM sodium chloride, pH 7.4) containing 0.005% surfactant P20 and 5 mM CaCl2 as a running buffer. All binding experiments were carried out at 25° C. with a constant flow rate of 20 μl/min. The different compounds dissolved in the running buffer (0.39 to 50 μM) were injected for 3 min, followed by a dissociation phase of 3 min. The sensor chip surface was regenerated after each experiment by injecting 10 μL of EDTA 0.5 M pH 8.0. A simple channel activated by EDC/NHS and deactivated with ethanolamine was used as control. The kinetic parameters were calculated using the BlAeval 4.1 software. Analysis was performed using the simple Langmuir binding model with separate ka/kd (kon/koff). The specific binding profiles were obtained after subtracting the response signal from the control channel and from blank-buffer injection. The fitting to each model was judged by the chi square value and randomness of residue distribution compared to the theoretical model (Langmuir binding 1:1).
The binding affinity of mannoside derivatives for the carbohydrate recognition domain (CRD) of DC-SIGN was assessed by surface plasmon resonance (SPR).
A CM5 sensor chip was functionalized with the DC-SIGN CRD, and increasing concentrations of the various compounds, mannan as a positive control and octaethyleneglycol (OEG) as a negative control, were injected over the chip surface. The association (kon) and dissociation (koff) rate constants and the resulting dissociation equilibrium constant (Kd=koff/kon) for each assessed compound were determined (see Table 1 hereunder).

[1] = Hydrodynamic diameter of micelles (Zetasizer Nano ZS); assay type: physicochemical; conditions: in water at 0.5 mg/ml
Procedure: DiManinsatC24 was prepared according a procedure similar to that used for the preparation of TriDiManC24 except that: • pentacosanoic acid was replaced by 10,12-pentacosadiynoic acid, and • before the coupling with 10,12-pentacosadiynoic acid, the benzyl groups of compound 33 were replaced by acetyl group so as to provide compound 108 (as illustrated in FIG. 3E). ^1H NMR δ(ppm) (MeOD, 400 MHz) 4.87 (s, 3H), 4.73 (s, 3H), 3.64-3.50 (m, 14H), 3.46-3.20 (m, 76H), 2.97-2.93 (m, 6H), 2.33 (t, 6H, J=6.8 Hz), 2.09-1.96 (m, 6H), 1.08-1.05 (m, 32H), 0.66 (t, 3H, J=6.8 Hz). ^13C NMR δ (ppm) (MeOD, 100 MHz) 173.7, 168.8, 104.2, 101.2, 80.6, 80.4, 75.1, 74.7, 72.5, 72.2, 72.1, 71.9, 71.8, 71.7, 71.6, 71.4, 69.4, 69.1, 68.9, 68.7, 68.6, 68.0, 63.2, 63.1, 42.2, 37.0, 34.8, 33.7, 33.1, 30.8, 30.7, 30.6, 30.5, 30.4, 30.2, 29.5, 28.1, 27.0, 26.0, 23.7, 19.7, 14.4. IR (neat film, cm^−1): 3353, 2924, 1716, 1636, 1350, 1182, 1095, 1035, 1009, 837, 669. • Determination of critical micelle concentrations (CMCs) and size of particles. The hydrodynamic diameters of micelles of glycolipids were measured in water using a Zetasizer Nano ZS system (Malvern Instruments). The CMCs were measured using pyrene as an extrinsic fluorescent probe and were carried out as described (Perino et al., 2011). Briefly, a range of glycolipid samples were dissolved in water (1 ml), with concentrations ranging from 1.0 to 0.001 mg/ml. A stock solution of pyrene (1 mM) was prepared in dimethyl sulfoxyde and was added to each sample. Fluorescent emission of pyrene was measured at 25° C. using a Fluorolog spectrofluorometer (Jobin Yvon, Horiba). The intensities of fluorescence emission were determined at 374 nm (I374) and at 383 nm (I383), with an excitation at a 339 nm wavelength. The ratios I374/I383 were calculated and plotted against the glycolipid concentration. The CMC value was determined at the intersection of the two straight lines.

HIV-1 R5 = HIV-1 R5 trans-infection of MAGI-CCR5 cells mediated by DCs; assay type: cell-based; conditions: for inhibition of HIV-1 trans-infection (in words): HIV-1 R5 where stated
Procedure: ManC1, […] (comparative) and compounds of the invention (ManC24, ManC17, TriManC24, TriDiManC24, TriManinsatC24 and ManinsatC24) were serially diluted in water. Human DCs (1×10^5 in 200 μl ) were pre-treated with different concentrations of compounds, or mannan (Sigma) or culture medium alone, in RPMI 1640 medium containing 10% FBS for 45 min at 37° C., prior infection with HIV-1 (100 ng of p24Gag) for 3 h. Excess free virus and molecules were removed by three washes. DCs were then cocultured with MAGI -CCR5 cells (1×10^5) at 37° C. plated in a 48-well plate. After two days, viral infection of MAGI-CCR5 cells was quantitated following beta-galactosidase assays and enumerating blue cells by light microscopy.
The IC50 were determined by serial dilution of each compound. The trans-infection assays were repeated a minimum of three times, and the IC50 determined using KaleidaGraph.
To investigate the ability of the compounds of the invention to inhibit HIV-1 trans infection, we chose to infect human DCs in order to best mimic in vivo conditions. Human DCs were exposed to different compounds (namely, Mannan (control), ManC1 (comparative), ManC11 (comparative), ManC17, ManC24, TriManC24, TriDiManC24, ManinsatC24 and TriManinsatC24) for 45 min at 37° C., before inoculation with HIV-1 (strains R5 and X4) for 3 hours. After extensive washings to remove unbound virions and mannosides, DCs were then co-cultured with MAGI-CCR5 cells. This procedure allows precise quantification of HIV-1 replication in reporter MAGI-CCR5 cells by detection of beta-galactosidase activity. These cells express an integrated copy of the HIV long terminal repeat (LTR) fused to the beta-galactosidase reporter gene, and express the CD4 receptor and the CCR5 and CXCR4 co-receptors, required for entry of HIV-1 R5 and X4 respectively. Upon viral entry leading to viral Tat expression and activation of the LTR, these cells permit quantification of HIV trans-infection after two days.

[2] = Human immunodeficiency virus 1, MAGI-CCR5, read-out: IC50 of HIV-1 trans-infection

Kd (DC-SIGN CRD; Kd=koff/kon)	IC50 (HIV-1 R5; Human immunodeficiency virus 1, MAGI-CCR5, HIV-1 R5, read-out: IC50 of HIV-1 trans-infection)	Structure (SMILES)	binding to DC-SIGN CRD (in words) (DC-SIGN CRD)	Kon (M^−1 · s^−1) (DC-SIGN CRD; 25° C., Langmuir 1:1)	hydrodynamic diameter of micelles [1]	inhibition of HIV-1 trans-infection (in words) (HIV-1 R5)	IC50 (HIV-1 R5; [2])	koff (DC-SIGN CRD; 25° C., Langmuir 1:1)	kon (DC-SIGN CRD; 25° C., Langmuir 1:1)	KD (μM) (DC-SIGN CRD; Kd=koff/kon)	residual level of trans-infection (HIV-1 R5; HIV-1 R5, highest concentrations, relative to medium alone)
		CCCCCCCCCCCCCCCCCC(=O)NCCOCCOCCOCC(=O)NCCOCCOCCOCCOC1OC(CO)C(O)C(O)C1O (stereo not shown) [ManC17]	bound with a low affinity	Low binding	17 nm	reduced trans-infection in a dose -dependent manner; also recorded: able to inhibit trans-infection to a similar extent; also recorded: inhibited in a dose -dependent manner	120 µM				
		CCCCCCCCCCCCCCCCCCCCCCCCC(=O)NCCOCCOCCOCC(=O)NCCOCCOCCOCCOC1OC(CO)C(O)C(O)C1O (stereo not shown) [ManC24]			17 nm	reduced trans-infection in a dose -dependent manner; also recorded: able to inhibit trans-infection to a similar extent; also recorded: inhibited in a dose -dependent manner	120 µM	9e-05 s⁻¹	273 M⁻¹ s⁻¹	sub-micromolar range	
2570 nM	61 µM	CCCCCCCCCCCCC#CC#CCCCCCCCCC(=O)NCCOCCOCCOCC(=O)NCCOCCOCCOCCO[C@H]1O[C@H](CO)[C@@H](O)[C@H](O)[C@@H]1O [ManinsatC24]						0.00138 s⁻¹	538 M⁻¹ s⁻¹		15%
